pIC50: −log10 of the molar value. Calls of active or inactive are those of the source. The rule behind the calls is not given here.
What was measured:
[1] = biological target: T1, 26S proteasome (Homo sapiens) (UniProt Q99460+P49721+P20618+P28074+P28062+P28065+P28072+O00487+P25786+P25787+P25788+P25789+P28066+P60900+O14818+Q8TAA3+P40306+A5LHX3+P49720+P28070+Q99436+Q16186+P35998+P62191+P43686+P62333+P17980+P62195+Q13200+O43242+O00232+O00231+Q15008+P51665+Q9UNM6+P55036+P48556+P60896); details: HeLa, 26 nM
Description: Inhibition of 20S proteasome in human HeLa cells expressing GFP-tagged ubiquitin G76V mutant at 26 nM after 16 hrs by fluorescence assay

[2] = Half life in 100 fold molar excess of deuterated water in DMSO at 37 degC by [1H]-NMR analysis; assay type: physicochemical
[3] = biological target: T1, 26S proteasome (Homo sapiens); test: Inhibition of 20S proteasome in human HeLa cells expressing GFP-tagged ubiquitin G76V mutant at 23 uM after 16 hrs by fluorescence assay; assay type: cell-based
26S proteasome = test: Inhibition of human 20S proteasome using Suc-LLVY-AMC as substrate preincubated for 30 mins followed by substrate addition measured after 90 mins by fluorescence assay; assay type: protein-complex assay
[4] = biological target: T1, 26S proteasome (Homo sapiens); test: Inhibition of human 20S proteasome using Suc-LLVY-AMC as substrate assessed as decrease in enzyme velocity; assay type: protein-complex assay

Row | Compound | inhibition [1] | half-life [2] [h] | inhibition [3] | pIC50 (26S proteasome) | inhibition [4]
1 | CC(C)C[C@H](NC(=O)[C@H](Cc1ccccc1)NC(=O)c1cnccn1)B(O)O [BORTEZOMIB] | Active |  |  |  | 
2 | COc1cccc(-c2nsc(=O)o2)c1 |  | 20 |  |  | 
3 | CC(C)C[C@@H](NC(=O)[C@H](Cc1ccccc1)NC(=O)c1cnccn1)c1nsc(=O)o1 |  |  | inactive | 3.65 | Dose-dependent effect
4 | CC(C)C[C@H](NC(=O)[C@H](Cc1ccccc1)NC(=O)c1cnccn1)c1nsc(=O)o1 |  | 156 | Active | 3.97 | Dose-dependent effect

Source: ChEMBL document CHEMBL3217678 (Medchemcomm, 2011)
